Values after ≈ are worked out from the molar mass of the structure shown. Values belong to the molecule of their own block, whether it stands above or below them.
Columns and labels:
[1] = system: human brain tumor, A-127; experiment: MTT assay, anti tumor activities of derivatives; format: cell-based
[2] = system: SHG-44 Human Brain Glioma (Subcutaneous Inoculation); settings: positive control, 30 mg/kg once a day for 7 days
[3] = system: recurrent anaplastic astrocytoma; settings: cited from earlier work
[4] = system: G422 mice glioma (intracranial inoculation); experiment: Intracranial inoculation, survival; format: in vivo; settings: positive control, i.p. 5 mg/kg once a day for 7 days
Procedure: Each experiment was repeated three times.
Intracranial inoculation: Scientists took aseptically G422 tumor from well-growing mice to prepare 2×10^7 cells/ml suspension by even protoplasm method. Mice were inoculated intracranially with 0.05 ml suspension. Treatment started the day after the inoculation. Animal survival time was recorded for 30 days.

[5] = system: tumor cells; settings: in vitro; cited from earlier work
[6] = system: liver cancer cell SMMC; settings: Elemene at 20 ug/ml; cited from earlier work
[7] = system: glioblastoma; settings: after treatment with this drug; cited from earlier work
[8] = system: sensitive parental cell line CEM; experiment: IC50 and drug accumulation in the sensitive line
[9] = 3H labeled, injected intravenously or taken orally; cited from earlier work
[10] = system: MDR cell line CEM/ADM; experiment: MDR reversal, MTT method
[11] = system: MDR1 mRNA in CEM.ADM cells; experiment: MDR1 mRNA by Rt-PCR
[12] = system: Human hepatic cancer BEL-7402 cell line; settings: after 6 weeks of induction with Elemene at 48.9 ug/ml; cited from earlier work
[13] = system: CEM/ADM cells; experiment: Intracellular drug accumulation; settings: verapamil at 7.5 ug/ml
[14] = system: SKOV3/CIS cells; settings: cited from earlier work

IC50 ([1]; 24 Hour): 176 µg/mL (≈ 739 µM)
IC50 ([1]; 48 Hour): 163 µg/mL (≈ 685 µM)
IC50 ([1]; 72 Hour): 133 µg/mL (≈ 558 µM)
SMILES: C=C[C@]1(C)CC[C@@H](C(C)(O)CO)C[C@H]1C(=C)C (single isomer, unassigned) [LR1, (R or S)-2-((1R,3S,4S)-3-Isopropenyl-4-methyl-4-vinyl-cyclohexyl)-propane-1,2-diol]

SMILES: O=P1(N(CCCl)CCCl)NCCCO1 (stereo not shown) [CTX, cyclo-phosphate acylamine]
TIR Experiment 1 [2]: 83.16%
TIR Experiment 2 [2]: 88.54%
Tumor Weight (g) Experiment 1 [2]: 0.33 ± 0.10 g
Tumor Weight (g) Experiment 2 [2]: 0.22 ± 0.04 g
Tumor Weight (g) Experiment 3 [2]: 0.23 ± 0.05 g

SMILES: Cn1nnc2c(C(N)=O)ncn2c1=O [TEMODAR, temozolomide]
CR+PR rate ([3]; brain tumor patients): 20%
complete responses ([3]; human, in vivo): 9%
overall tumor response rate ([3]; human, in vivo): 22%
partial responses ([3]; human, in vivo): 13%

SMILES: COc1cc([C@@H]2c3cc4c(cc3[C@@H](O[C@@H]3O[C@@H]5CO[C@@H](c6cccs6)O[C@H]5[C@H](O)[C@H]3O)[C@H]3COC(=O)[C@H]23)OCO4)cc(OC)c1O [VM-26]
LPR Experiment 1 [4]: 183.24%
LPR Experiment 2 [4]: 168.75%
LPR Experiment 3 [4]: 171.2%
Mean Survival Time (Days) Experiment 1 [4]: 24.5 ± 6.0 days
Mean Survival Time (Days) Experiment 2 [4]: 25.8 ± 5.1 days
Mean Survival Time (Days) Experiment 3 [4]: 25.9 ± 4.7 days
animals alive at the end / at the beginning of the treatment (n/m) [4]: VM-26 (4/10)

SMILES: C=C[C@]1(C)CC[C@@H](C(=C)C)C[C@H]1C(=C)C [beta-elemene, (−)-beta-elemene]
IC50 for tumor cells [5]: 20 to 50 µg/mL
G0/G1 to S phase transition [6]: blocked G0/G1 to S phase transition
longest survival time of a glioblastoma patient [7]: 62 months
effect on IC50 values and drug accumulations [8]: no effect
passage of the blood brain barrier (BBB) [9]: Radioactivity was detected in animals' brain
dose modifying factor (DMF) for DAU ([10]; beta-elemene at 3 ug/ml): 1.79
dose modifying factor (DMF) for VCR ([10]; beta-elemene at 3 ug/ml): 1.60
dose modifying factor (DMF) for ADM ([10]; beta-elemene at 3 ug/ml, IC50 without/with MDR modulator): 1.84
quantity of MDR1 mRNA [11]: no quantity change
expression of MDR1 mRNA or P-glycoprotein (P-gp) [12]: did not express MDR1 mRNA or P-glycoprotein (P-gp)

SMILES: COc1ccc(CCN(C)CCCC(C#N)(c2ccc(OC)c(OC)c2)C(C)C)cc1OC (stereo not shown) [verapamil]
intracellular accumulations of ADM, DAU and VCR versus negative controls [13]: about 2 times
DMF of ADM ([10]; verapamil at 7.5 ug/ml): 2.02
DMF of DAU ([10]; verapamil at 7.5 ug/ml): 2.13
DMF of VCR ([10]; verapamil at 7.5 ug/ml): 1.95
enhancement of the sensitivity of SKOV3/CIS to doxorubicin [14]: 260 fold

— patent US20060014987A1, “Synthesis of beta-elemene, intermediates thereto, analogues and uses thereof” (priority 2003, published 2006)
